Values belong to the compound of their own block, whether it stands above or below them.
Test system: 422866-222-R5-J1-PDC spheroid viability
Test: Anticancer human tumor 422866-222-R5-J1-PDC patient-derived pancreatic adenocarcinoma cell line growth inhibition [CLK]
Conditions: spheroids with HUVEC and MSC; for IC50: curve of first compound; for viability, T/C: stronger effect = lower value
Outline: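 Patient-derived tumor cells grown as complex spheroids with HUVEC endothelial cells and mesenchymal stem cells, treated with drug combinations. Concentrations descend in half-log steps from near clinical Cmax, or from 10 microM if Cmax unknown.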

[1] = second compound 0.0316 µM, first compound 0.0316 µM
[2] = second compound 0.0316 µM, first compound 0.1 µM
[3] = second compound 0.0316 µM, first compound 0.316 µM
[4] = second compound 0.0316 µM, first compound 1 µM
[5] = second compound 0.1 µM, first compound 0.0316 µM
[6] = second compound 0.1 µM, first compound 0.1 µM
[7] = second compound 0.1 µM, first compound 0.316 µM
[8] = second compound 0.1 µM, first compound 1 µM
[9] = second compound 0.316 µM, first compound 0.0316 µM
[10] = second compound 0.316 µM, first compound 0.1 µM
[11] = second compound 0.316 µM, first compound 0.316 µM
[12] = second compound 0.316 µM, first compound 1 µM
[13] = second compound 1 µM, first compound 0.0316 µM
[14] = second compound 1 µM, first compound 0.1 µM
[15] = second compound 1 µM, first compound 0.316 µM
[16] = second compound 1 µM, first compound 1 µM
[17] = second compound 3.16 µM, first compound 0.0316 µM
[18] = second compound 3.16 µM, first compound 0.1 µM
[19] = second compound 3.16 µM, first compound 0.316 µM
[20] = second compound 3.16 µM, first compound 1 µM
[21] = second compound 10 µM, first compound 0.0316 µM
[22] = second compound 10 µM, first compound 0.1 µM
[23] = second compound 10 µM, first compound 0.316 µM
[24] = second compound 10 µM, first compound 1 µM
[25] = second compound 0.0316 µM, first compound 0.00316 µM
[26] = second compound 0.0316 µM, first compound 0.01 µM
[27] = second compound 0.1 µM, first compound 0.00316 µM
[28] = second compound 0.1 µM, first compound 0.01 µM
[29] = second compound 0.316 µM, first compound 0.00316 µM
[30] = second compound 0.316 µM, first compound 0.01 µM
[31] = second compound 1 µM, first compound 0.00316 µM
[32] = second compound 1 µM, first compound 0.01 µM
[33] = second compound 3.16 µM, first compound 0.00316 µM
[34] = second compound 3.16 µM, first compound 0.01 µM
[35] = second compound 10 µM, first compound 0.00316 µM
[36] = second compound 10 µM, first compound 0.01 µM
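Note: spheroids exposed to agents for seven days before readout.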

IC50 (second compound 0.0316 µM): 144 nM
IC50 (second compound 0.1 µM): 175 nM
IC50 (second compound 0.316 µM): 86 nM
IC50 (second compound 1 µM): 48.5 nM
IC50 (second compound 3.16 µM): 32 nM
IC50 (second compound 10 µM): 62.6 nM
Structure (SMILES): CC(Nc1ccc2c(c1)OCCn1cc(N3C(=O)OCC3C(F)F)nc1-2)C(N)=O (stereo unspecified) + CNC(=O)c1ccc(Nc2nc(OC3CCCC3)c3c(-c4ccc5nc(C)oc5c4)c[nH]c3n2)c(OC)c1
viability, T/C [1]: 80.2%
viability, T/C [2]: 52.4%
viability, T/C [3]: 42.6%
viability, T/C [4]: 35.1%
viability, T/C (second compound 0.0316 µM, first compound 3.16 µM): 30.1%
viability, T/C (second compound 0.0316 µM, first compound 10 µM): 28.7%
viability, T/C [5]: 83.7%
viability, T/C [6]: 56.9%
viability, T/C [7]: 43.8%
viability, T/C [8]: 32.8%
viability, T/C (second compound 0.1 µM, first compound 3.16 µM): 25.6%
viability, T/C (second compound 0.1 µM, first compound 10 µM): 31.9%
viability, T/C [9]: 56.3%
viability, T/C [10]: 49.1%
viability, T/C [11]: 37%
viability, T/C [12]: 28.1%
viability, T/C (second compound 0.316 µM, first compound 3.16 µM): 29.2%
viability, T/C (second compound 0.316 µM, first compound 10 µM): 24.2%
viability, T/C [13]: 56.2%
viability, T/C [14]: 37.6%
viability, T/C [15]: 37.7%
viability, T/C [16]: 31%
viability, T/C (second compound 1 µM, first compound 3.16 µM): 26.2%
viability, T/C (second compound 1 µM, first compound 10 µM): 24.9%
viability, T/C [17]: 50.2%
viability, T/C [18]: 41.2%
viability, T/C [19]: 37.5%
viability, T/C [20]: 29.4%
viability, T/C (second compound 3.16 µM, first compound 3.16 µM): 28.8%
viability, T/C (second compound 3.16 µM, first compound 10 µM): 25.3%
viability, T/C [21]: 58.9%
viability, T/C [22]: 43%
viability, T/C [23]: 36.7%
viability, T/C [24]: 31.9%
viability, T/C (second compound 10 µM, first compound 3.16 µM): 33.1%
viability, T/C (second compound 10 µM, first compound 10 µM): 25.8%

IC50 (second compound 0.0316 µM): > 1000 nM
IC50 (second compound 0.1 µM): > 1000 nM
IC50 (second compound 0.316 µM): > 1000 nM
IC50 (second compound 1 µM): > 1000 nM
IC50 (second compound 3.16 µM): > 1000 nM
IC50 (second compound 10 µM): > 1000 nM
Structure (SMILES): CCN1CCN(Cc2ccc(Nc3ncc(F)c(-c4cc(F)c5nc(C)n(C(C)C)c5c4)n3)nc2)CC1 + CNC(=O)c1ccc(Nc2nc(OC3CCCC3)c3c(-c4ccc5nc(C)oc5c4)c[nH]c3n2)c(OC)c1
viability, T/C [25]: 96.2%
viability, T/C [26]: 111%
viability, T/C [1]: 79%
viability, T/C [2]: 73.5%
viability, T/C [3]: 80.9%
viability, T/C [4]: 96.2%
viability, T/C [27]: 81.5%
viability, T/C [28]: 84.5%
viability, T/C [5]: 72.1%
viability, T/C [6]: 64.4%
viability, T/C [7]: 77.5%
viability, T/C [8]: 88.9%
viability, T/C [29]: 67.5%
viability, T/C [30]: 58.9%
viability, T/C [9]: 60.5%
viability, T/C [10]: 59.3%
viability, T/C [11]: 65.3%
viability, T/C [12]: 71.9%
viability, T/C [31]: 72%
viability, T/C [32]: 62.8%
viability, T/C [13]: 59.2%
viability, T/C [14]: 47.9%
viability, T/C [15]: 62.8%
viability, T/C [16]: 65.6%
viability, T/C [33]: 65.2%
viability, T/C [34]: 51.5%
viability, T/C [17]: 56.2%
viability, T/C [18]: 56.2%
viability, T/C [19]: 66.5%
viability, T/C [20]: 67.9%
viability, T/C [35]: 54.6%
viability, T/C [36]: 62.1%
viability, T/C [21]: 54.5%
viability, T/C [22]: 58.6%
viability, T/C [23]: 63.2%
viability, T/C [24]: 74.2%

IC50 (second compound 0.0316 µM): 11.9 nM
IC50 (second compound 0.1 µM): 16.8 nM
IC50 (second compound 0.316 µM): 11.8 nM
IC50 (second compound 1 µM): < 3.16 nM
IC50 (second compound 3.16 µM): 8.5 nM
IC50 (second compound 10 µM): < 3.16 nM
Structure (SMILES): COc1c(OCCCN2CCOCC2)ccc2c3n(c(=NC(=O)c4cnc(N)nc4)nc12)CCN3 + CNC(=O)c1ccc(Nc2nc(OC3CCCC3)c3c(-c4ccc5nc(C)oc5c4)c[nH]c3n2)c(OC)c1
viability, T/C [25]: 83.3%
viability, T/C [26]: 51.5%
viability, T/C [1]: 39.9%
viability, T/C [2]: 26.8%
viability, T/C [3]: 28.4%
viability, T/C [4]: 30.3%
viability, T/C [27]: 72.2%
viability, T/C [28]: 60%
viability, T/C [5]: 37.7%
viability, T/C [6]: 32.1%
viability, T/C [7]: 26.7%
viability, T/C [8]: 33.4%
viability, T/C [29]: 62.8%
viability, T/C [30]: 53.6%
viability, T/C [9]: 29.5%
viability, T/C [10]: 23.9%
viability, T/C [11]: 25.7%
viability, T/C [12]: 32.9%
viability, T/C [31]: 50.1%
viability, T/C [32]: 47.1%
viability, T/C [13]: 33.5%
viability, T/C [14]: 27.6%
viability, T/C [15]: 25.9%
viability, T/C [16]: 36.8%
viability, T/C [33]: 57.6%
viability, T/C [34]: 48.7%
viability, T/C [17]: 31.9%
viability, T/C [18]: 25.4%
viability, T/C [19]: 28.6%
viability, T/C [20]: 36.1%
viability, T/C [35]: 47.2%
viability, T/C [36]: 43.3%
viability, T/C [21]: 35.5%
viability, T/C [22]: 28%
viability, T/C [23]: 33.5%
viability, T/C [24]: 36.1%
